Measurements from PMC11927176 (BMC Microbiology, 2025).

Test system: AadA37
Assay: coupled continuous spectrophotometric assay of pyrophosphate release
Format: biochemical, Morganella morganii
Settings: 5 mM ATP, 10 mM MgCl2, 50 mM HEPES pH 7.5, 37 °C

Km [µM] | SMILES
8.17 | CN[C@@H]1[C@H](O)[C@H](NC)[C@H]2O[C@@]3(O)C(=O)C[C@@H](C)O[C@H]3O[C@@H]2[C@H]1O [Spectinomycin]
2.67 | CN[C@@H]1[C@H](O[C@H]2[C@H](O[C@H]3[C@H](O)[C@@H](O)[C@H](N=C(N)N)[C@@H](O)[C@@H]3N=C(N)N)O[C@@H](C)[C@]2(O)C=O)O[C@@H](CO)[C@H](O)[C@H]1O [Streptomycin]
